Common to all, as to type: in vivo
In series [1] the test system is Cabbage Looper (CL) (Trichoplusia ni). Description: Bioassay on Cabbage Looper (CL), 128-well diet tray assay. The settings on record: 168 h, Table ABC, 50 μg/cm^2 on artificial diet, second instar larvae, five to seven days, 25° C., read-out: CL % Control (or Mortality) rating. The procedure:
(§1) Certain molecules disclosed in this document were tested against BAW and CL using procedures described in the following examples. In the reporting of the results, the “BAW & CL Rating Table” was used (See Table Section).
Bioassays on CL were conducted using a 128-well diet tray assay. One to five second instar CL larvae were placed in each well (3 mL) of the diet tray that had been previously filled with 1 mL of artificial diet to which 50 μg/cm^2 of the test compound (dissolved in 50 μL of 90:10 acetone-water mixture) had been applied (to each of eight wells) and then allowed to dry. Trays were covered with a clear self-adhesive cover, and held at 25° C., 14:10 light-dark for five to seven days. Percent mortality was recorded for the larvae in each well; activity in the eight wells was then averaged. The results are indicated in the table entitled “Table ABC: Assay Results” and “Table ABCD: Assay Results” (See Table Section).

Series [2] has as its system Beet Armyworm (BAW) (Spodoptera exigua). Description: Bioassay on Beet Armyworm (BAW), 128-well diet tray assay. The settings on record: 168 h, Table ABC, 50 μg/cm^2 on artificial diet, second instar larvae, five to seven days, 25° C., read-out: BAW % Control (or Mortality) rating. The procedure: as §1
Bioassays on BAW were conducted using a 128-well diet tray assay. one to five second instar BAW larvae were placed in each well (3 mL) of the diet tray that had been previously filled with 1 mL of artificial diet to which 50 μg/cm^2 of the test compound (dissolved in 50 μL of 90:10 acetone-water mixture) had been applied (to each of eight wells) and then allowed to dry. Trays were covered with a clear self-adhesive cover, and held at 25° C., 14:10 light-dark for five to seven days. Percent mortality was recorded for the larvae in each well; activity in the eight wells was then averaged. The results are indicated in the tables entitled “Table ABC: Assay Results” and “Table ABCD: Assay Results” (See Table Section).

For series [3], the system named is Yellow Fever Mosquito (YFM) (Aedes aegypti). Kind of series: Bioassay on Yellow Fever Mosquito (YFM) larvae, 96-well plate. Particulars: Table ABC; about 1 day-old larvae, master plate 4000 ppm in DMSO diluted, scored on mortality after 3 days. The protocol: Certain molecules disclosed in this document were tested against YFM using procedures described in the following paragraph. In the reporting of the results, the “GPA & YFM Rating Table” was used (See Table Section).
Master plates containing 400 μg of a molecule dissolved in 100 μL of dimethyl sulfoxide (DMSO) (equivalent to a 4000 ppm solution) are used. A master plate of assembled molecules contains 15 μL per well. To this plate, 135 μL of a 90:10 water:acetone mixture is added to each well. A robot (Biomek® NXP Laboratory Automation Workstation) is programmed to dispense 15 μL aspirations from the master plate into an empty 96-well shallow plate (“daughter” plate). There are 6 reps (“daughter” plates) created per master. The created daughter plates are then immediately infested with YFM larvae.
The day before plates are to be treated, mosquito eggs are placed in Millipore water containing liver powder to begin hatching (4 g. into 400 mL). After the daughter plates are created using the robot, they are infested with 220 μL of the liver powder/larval mosquito mixture (about 1 day-old larvae). After plates are infested with mosquito larvae, a non-evaporative lid is used to cover the plate to reduce drying. Plates are held at room temperature for 3 days prior to grading. After 3 days, each well is observed and scored based on mortality.

Consider `CCc1cccc(C)c1N1C(=O)CS/C1=N\C(=O)NC1Cc2ccc(-c3ncn(-c4ccc(OC(F)(F)F)cc4)n3)cc2C1` (stereo not drawn) [F10, (Z)-1-(3-(2-Ethyl-6-methylphenyl)-4-oxothiazolidin-2-ylidene)-3-(5-(1-(4-(trifluoromethoxy)phenyl)-1H-1,2,4-triazol-3-yl)-2,3-dihydro-1H-inden-2-yl)urea], for which the mortality at 50 µg/cm2 in series [1] and in series [2] was 50 to 100% each time. The “YFM % Control (or Mortality) rating” value in series [3] is recorded as “A (80-100)”.
Consider `O=C(NC(=S)Nc1ccccc1C1CC1)NC1Cc2ccc(-c3ncn(-c4ccc(OC(F)(F)F)cc4)n3)cc2C1` (stereo not drawn) [F11, 1-[(2-Cyclopropylphenyl)carbamothioyl]-3-[5-[1-[4-(trifluoromethoxy)phenyl]-1,2,4-triazol-3-yl]indan-2-yl]urea], for which the mortality at 50 µg/cm2 in series [1] and in series [2] was 50 to 100% in each case. Besides, the “YFM % Control (or Mortality) rating” value in series [3] is reported as “A (80-100)”.
In the case of `CC(C)c1ccccc1N1C(=O)CS/C1=N\C(=O)NC1Cc2ccc(-c3ncn(-c4ccc(OC(F)(F)F)cc4)n3)cc2C1` (stereo not drawn) [F16, (Z)-1-(3-(2-Isopropylphenyl)-4-oxothiazolidin-2-ylidene)-3-(5-(1-(4-(trifluoromethoxy)phenyl)-1H-1,2,4-triazol-3-yl)-2,3-dihydro-1H-inden-2-yl)urea], the mortality at 50 µg/cm2 in series [1] and in series [2] was 50 to 100% throughout. In series [3], the “YFM % Control (or Mortality) rating” value is “A (80-100)”.
`Cc1ccc(C(C)C)c(N2C(=O)CS/C2=N\C(=O)NC2CCc3cc(-c4ncn(-c5ccc(OC(F)(F)F)cc5)n4)ccc3C2)c1` (stereo not drawn) [F17, (Z)-1-(3-(2-isopropyl-5-methylphenyl)-4-oxothiazolidin-2-ylidene)-3-(6-(1-(4-(trifluoromethoxy)phenyl)-1H-1,2,4-triazol-3-yl)-1,2,3,4-tetrahydronaphthalen-2-yl)urea]: the mortality at 50 µg/cm2 in series [1] and in series [2] was 50 to 100% each time. Moreover, the “YFM % Control (or Mortality) rating” value in series [3] is on record as “A (80-100)”.
Take `Cc1cs/c(=N\C(=O)NC2Cc3ccc(-c4ncn(-c5ccc(OC(F)(F)F)cc5)n4)cc3C2)n1-c1ccccc1C(C)C` (stereo not drawn) [FA1, (Z)-1-(3-(2-isopropylphenyl)-4-methylthiazol-2(3H)-ylidene)-3-(5-(1-(4-(trifluoromethoxy)phenyl)-1H-1,2,4-triazol-3-yl)-2,3-dihydro-1H-inden-2-yl)urea]: the mortality at 50 µg/cm2 in series [1] and in series [2] was 50 to 100% each time. In addition, the “YFM % Control (or Mortality) rating” value in series [3] is listed as “A (80-100)”.
Consider `CC(C)c1ccccc1N1/C(=N/C(=O)NC2Cc3ccc(-c4ncn(-c5ccc(OC(F)(F)F)cc5)n4)cc3C2)SCC1C` (stereo not drawn) [FA3, (Z)-1-(3-(2-isopropylphenyl)-4-methylthiazolidin-2-ylidene)-3-(5-(1-(4-(trifluoromethoxy)phenyl)-1H-1,2,4-triazol-3-yl)-2,3-dihydro-1H-inden-2-yl)urea], for which the values for the mortality at 50 µg/cm2 in series [1] and in series [2] were 0% and 50 to 100%, respectively. For the same molecule, in series [3], the “YFM % Control (or Mortality) rating” value was “B (More than 0-Less than 80)”.
For `CC1CS/C(=N\C(=O)NC2Cc3ccc(-c4ncn(-c5ccc(OC(F)(F)F)cc5)n4)cc3C2)N(c2ccccc2C(C)C)C1` (stereo not drawn) [FA5, (Z)-1-(3-(2-Isopropylphenyl)-5-methyl-1,3-thiazinan-2-ylidene)-3-(5-(1-(4-(trifluoromethoxy)phenyl)-1H-1,2,4-triazol-3-yl)-2,3-dihydro-1H-inden-2-yl)urea], in that order: 50 to 100%, 50 to 100% and “A (80-100)”.
As to `CC(C)c1ccccc1N1/C(=N/C(=O)NC2Cc3ccc(-c4ncn(-c5ccc(OC(F)(F)F)cc5)n4)cc3C2)SCCC1C` (stereo not drawn) [FA6, (Z)-1-(3-(2-Isopropylphenyl)-4-methyl-1,3-thiazinan-2-ylidene)-3-(5-(1-(4-(trifluoromethoxy)phenyl)-1H-1,2,4-triazol-3-yl)-2,3-dihydro-1H-inden-2-yl)urea], the mortality at 50 µg/cm2 in series [1] and in series [2] was 50 to 100% in each case. Besides, the “YFM % Control (or Mortality) rating” value in series [3] is “A (80-100)”.
For the molecule `COc1ccc(NC(=S)NC(=O)NC2Cc3ccc(-c4ncn(-c5ccc(OC(F)(F)F)cc5)n4)cc3C2)c(C)c1` (stereo not drawn) [P1], the mortality at 50 µg/cm2 in series [1] and in series [2] was 50 to 100% each time. In addition, the “YFM % Control (or Mortality) rating” value in series [3] is “A (80-100)”.
`CC(C)c1cc(F)ccc1NC(=S)NC(=O)NC1Cc2ccc(-c3ncn(-c4ccc(OC(F)(F)F)cc4)n3)cc2C1` (stereo not drawn) [P2, 1-[(4-Fluoro-2-isopropyl-phenyl)carbamothioyl]-3-[5-[1-[4-(trifluoromethoxy)phenyl]-1,2,4-triazol-3-yl]indan-2-yl]urea]: the mortality at 50 µg/cm2 in series [1] and in series [2] was 50 to 100% each time. Also, the “YFM % Control (or Mortality) rating” value in series [3] was “A (80-100)”.
As to `CC(C)c1ccc(Cl)cc1NC(=S)NC(=O)NC1Cc2ccc(-c3ncn(-c4ccc(OC(F)(F)F)cc4)n3)cc2C1` (stereo not drawn) [P3, 1-[(5-Chloro-2-isopropyl-phenyl)carbamothioyl]-3-[5-[1-[4-(trifluoromethoxy)phenyl]-1,2,4-triazol-3-yl]indan-2-yl]urea], the mortality at 50 µg/cm2 in series [1] and in series [2] was 50 to 100% each time. For the same molecule, the “YFM % Control (or Mortality) rating” value in series [3] is reported as “A (80-100)”.
For the molecule `COc1ccc(C(C)C)c(NC(=S)NC(=O)NC2Cc3ccc(-c4ncn(-c5ccc(OC(F)(F)F)cc5)n4)cc3C2)c1` (stereo not drawn) [P4, 1-[(2-Isopropyl-5-methoxy-phenyl)carbamothioyl]-3-[5-[1-[4-(trifluoromethoxy)phenyl]-1,2,4-triazol-3-yl]indan-2-yl]urea], the mortality at 50 µg/cm2 in series [1] and in series [2] was 50 to 100% each time. The “YFM % Control (or Mortality) rating” value in series [3] is reported as “A (80-100)”.
`Cc1ccc(NC(=S)NC(=O)NC2Cc3ccc(-c4ncn(-c5ccc(OC(F)(F)F)cc5)n4)cc3C2)c(C(C)C)c1` (stereo not drawn) [P5, 1-[(2-Isopropyl-4-methyl-phenyl)carbamothioyl]-3-[5-[1-[4-(trifluoromethoxy)phenyl]-1,2,4-triazol-3-yl]indan-2-yl]urea]: the mortality at 50 µg/cm2 in series [1] and in series [2] was 50 to 100% throughout. Further, in series [3], the “YFM % Control (or Mortality) rating” value was “A (80-100)”.
Take `COc1ccc(N2C(=O)CS/C2=N\C(=O)NC2Cc3ccc(-c4ncn(-c5ccc(OC(F)(F)F)cc5)n4)cc3C2)c(C)c1` (stereo not drawn) [P6, (Z)-1-(3-(4-methoxy-2-methylphenyl)-4-oxothiazolidin-2-ylidene)-3-(5-(1-(4-(trifluoromethoxy)phenyl)-1H-1,2,4-triazol-3-yl)-2,3-dihydro-1H-inden-2-yl)urea]: the mortality at 50 µg/cm2 in series [1] and in series [2] was 50 to 100% in each case. In series [3], the “YFM % Control (or Mortality) rating” value is recorded as “A (80-100)”.
Take `Cc1ccc(N2C(=O)CS/C2=N\C(=O)NC2Cc3ccc(-c4ncn(-c5ccc(OC(F)(F)F)cc5)n4)cc3C2)c(C(C)C)c1` (stereo not drawn) [P7, (Z)-1-(3-(2-Isopropyl-4-methylphenyl)-4-oxothiazolidin-2-ylidene)-3-(5-(1-(4-(trifluoromethoxy)phenyl)-1H-1,2,4-triazol-3-yl)-2,3-dihydro-1H-inden-2-yl)urea]: the mortality at 50 µg/cm2 in series [1] and in series [2] was 50 to 100% each time. Further, the “YFM % Control (or Mortality) rating” value in series [3] was “A (80-100)”.
With `CC(C)c1ccc(Cl)cc1N1C(=O)CS/C1=N\C(=O)NC1Cc2ccc(-c3ncn(-c4ccc(OC(F)(F)F)cc4)n3)cc2C1` (stereo not drawn) [P8, (Z)-1-(3-(5-Chloro-2-isopropylphenyl)-4-oxothiazolidin-2-ylidene)-3-(5-(1-(4-(trifluoromethoxy)phenyl)-1H-1,2,4-triazol-3-yl)-2,3-dihydro-1H-inden-2-yl)urea], the mortality at 50 µg/cm2 in series [1] and in series [2] was 50 to 100% throughout. Besides, the “YFM % Control (or Mortality) rating” value in series [3] is “A (80-100)”.

As a reminder, the mortality is the share of the test organisms that died.

The record behind these values is patent US9469617B2, “Molecules having certain pesticidal utilities, and intermediates, compositions, and processes related thereto” (priority 2014, dated 2016).
